# Experimental data as given in PubChem BioAssay AID2060496 (Molecular Pharmacology Branch, DTP, NCI, 2025).
# pIC50: −log10 of the molar value.
# System: 276233-004-R-J1-PDC complex spheroid viability
# Assay: Anticancer human tumor 276233-004-R-J1-PDC patient-derived colon adenocarcinoma cell line growth inhibition [GQUAD]
# Details: for pIC50: curve of first compound; for viability, T/C: stronger effect = lower value
# Outline: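 Viability of tumor cells grown as complex spheroids with endothelial and stromal cells, exposed to drug combinations. Top concentration at or near clinical Cmax (else 10 microM), diluted in half-log increments.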
# [1] = second compound 0.0316 µM, first compound 0.0316 µM
# [2] = second compound 0.0316 µM, first compound 0.1 µM
# [3] = second compound 0.0316 µM, first compound 0.316 µM
# [4] = second compound 0.0316 µM, first compound 1 µM
# [5] = second compound 0.0316 µM, first compound 3.16 µM
# [6] = second compound 0.0316 µM, first compound 10 µM
# [7] = second compound 0.1 µM, first compound 0.0316 µM
# [8] = second compound 0.1 µM, first compound 0.1 µM
# [9] = second compound 0.1 µM, first compound 0.316 µM
# [10] = second compound 0.1 µM, first compound 1 µM
# [11] = second compound 0.1 µM, first compound 3.16 µM
# [12] = second compound 0.1 µM, first compound 10 µM
# [13] = second compound 0.316 µM, first compound 0.0316 µM
# [14] = second compound 0.316 µM, first compound 0.1 µM
# [15] = second compound 0.316 µM, first compound 0.316 µM
# [16] = second compound 0.316 µM, first compound 1 µM
# [17] = second compound 0.316 µM, first compound 3.16 µM
# [18] = second compound 0.316 µM, first compound 10 µM
# [19] = second compound 1 µM, first compound 0.0316 µM
# [20] = second compound 1 µM, first compound 0.1 µM
# [21] = second compound 1 µM, first compound 0.316 µM
# [22] = second compound 1 µM, first compound 1 µM
# [23] = second compound 1 µM, first compound 3.16 µM
# [24] = second compound 1 µM, first compound 10 µM
# [25] = second compound 3.16 µM, first compound 0.0316 µM
# [26] = second compound 3.16 µM, first compound 0.1 µM
# [27] = second compound 3.16 µM, first compound 0.316 µM
# [28] = second compound 3.16 µM, first compound 1 µM
# [29] = second compound 3.16 µM, first compound 3.16 µM
# [30] = second compound 3.16 µM, first compound 10 µM
# [31] = second compound 10 µM, first compound 0.0316 µM
# [32] = second compound 10 µM, first compound 0.1 µM
# [33] = second compound 10 µM, first compound 0.316 µM
# [34] = second compound 10 µM, first compound 1 µM
# [35] = second compound 10 µM, first compound 3.16 µM
# [36] = second compound 10 µM, first compound 10 µM
# 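Note: spheroids exposed to drugs for seven days.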
# 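Throughout, for viability, T/C: 100% = DMSO vehicle control viability.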
structure (smiles),measurement,setting,value
CCCS(=O)(=O)Nc1ccc(F)c(C(=O)c2c[nH]c3ncc(-c4ccc(Cl)cc4)cc23)c1F + Cc1cnc(CNC(=O)c2c(=O)c3ccc(N4CCCN(C)CC4)nc3n3c2sc2ccccc23)cn1,pIC50,second compound 0.0316 µM,< 5.00
same,pIC50,second compound 0.1 µM,< 5.00
same,pIC50,second compound 0.316 µM,< 5.00
same,pIC50,second compound 1 µM,< 5.00
same,pIC50,second compound 3.16 µM,< 5.00
same,pIC50,second compound 10 µM,< 5.00
same,"viability, T/C",[1],82.2%
same,"viability, T/C",[2],93.7%
same,"viability, T/C",[3],117%
same,"viability, T/C",[4],105%
same,"viability, T/C",[5],112%
same,"viability, T/C",[6],75.7%
same,"viability, T/C",[7],92%
same,"viability, T/C",[8],87.3%
same,"viability, T/C",[9],96.4%
same,"viability, T/C",[10],105%
same,"viability, T/C",[11],99.5%
same,"viability, T/C",[12],82.9%
same,"viability, T/C",[13],80.8%
same,"viability, T/C",[14],99.1%
same,"viability, T/C",[15],101%
same,"viability, T/C",[16],100%
same,"viability, T/C",[17],101%
same,"viability, T/C",[18],79.9%
same,"viability, T/C",[19],89.3%
same,"viability, T/C",[20],81.8%
same,"viability, T/C",[21],97.7%
same,"viability, T/C",[22],79.2%
same,"viability, T/C",[23],95%
same,"viability, T/C",[24],74.3%
same,"viability, T/C",[25],94.2%
same,"viability, T/C",[26],76.4%
same,"viability, T/C",[27],81.9%
same,"viability, T/C",[28],80.2%
same,"viability, T/C",[29],71.4%
same,"viability, T/C",[30],62.2%
same,"viability, T/C",[31],67.4%
same,"viability, T/C",[32],70%
same,"viability, T/C",[33],64.3%
same,"viability, T/C",[34],69.7%
same,"viability, T/C",[35],77.1%
same,"viability, T/C",[36],50.5%
Nc1ccn(C2OC(CO)C(O)C2(F)F)c(=O)n1 (stereo unspecified) + Cc1cnc(CNC(=O)c2c(=O)c3ccc(N4CCCN(C)CC4)nc3n3c2sc2ccccc23)cn1,pIC50,second compound 0.0316 µM,< 5.00
same,pIC50,second compound 0.1 µM,< 5.00
same,pIC50,second compound 0.316 µM,< 5.00
same,pIC50,second compound 1 µM,< 5.00
same,pIC50,second compound 3.16 µM,< 5.00
same,pIC50,second compound 10 µM,< 5.00
same,"viability, T/C",[1],82.7%
same,"viability, T/C",[2],77.7%
same,"viability, T/C",[3],83.8%
same,"viability, T/C",[4],81.1%
same,"viability, T/C",[5],88.4%
same,"viability, T/C",[6],72.6%
same,"viability, T/C",[7],89.8%
same,"viability, T/C",[8],87.9%
same,"viability, T/C",[9],80.7%
same,"viability, T/C",[10],93.3%
same,"viability, T/C",[11],84.4%
same,"viability, T/C",[12],79.9%
same,"viability, T/C",[13],80%
same,"viability, T/C",[14],97.9%
same,"viability, T/C",[15],86.6%
same,"viability, T/C",[16],80.4%
same,"viability, T/C",[17],77%
same,"viability, T/C",[18],76.7%
same,"viability, T/C",[19],94.2%
same,"viability, T/C",[20],78.8%
same,"viability, T/C",[21],105%
same,"viability, T/C",[22],83.8%
same,"viability, T/C",[23],82.5%
same,"viability, T/C",[24],79.9%
same,"viability, T/C",[25],80%
same,"viability, T/C",[26],68%
same,"viability, T/C",[27],91.8%
same,"viability, T/C",[28],73.2%
same,"viability, T/C",[29],66.3%
same,"viability, T/C",[30],62.3%
same,"viability, T/C",[31],65.8%
same,"viability, T/C",[32],75.2%
same,"viability, T/C",[33],69.5%
same,"viability, T/C",[34],78.2%
same,"viability, T/C",[35],65.2%
same,"viability, T/C",[36],57.5%
O=c1[nH]cc(F)c(=O)[nH]1 + Cc1cnc(CNC(=O)c2c(=O)c3ccc(N4CCCN(C)CC4)nc3n3c2sc2ccccc23)cn1,pIC50,second compound 0.0316 µM,< 5.00
same,pIC50,second compound 0.1 µM,< 5.00
same,pIC50,second compound 0.316 µM,< 5.00
same,pIC50,second compound 1 µM,< 5.00
same,pIC50,second compound 3.16 µM,< 5.00
same,pIC50,second compound 10 µM,< 5.00
same,"viability, T/C",[1],86.8%
same,"viability, T/C",[2],82.2%
same,"viability, T/C",[3],90.7%
same,"viability, T/C",[4],81.2%
same,"viability, T/C",[5],98.8%
same,"viability, T/C",[6],97.5%
same,"viability, T/C",[7],97.1%
same,"viability, T/C",[8],96.5%
same,"viability, T/C",[9],89.1%
same,"viability, T/C",[10],89.7%
same,"viability, T/C",[11],95.1%
same,"viability, T/C",[12],102%
same,"viability, T/C",[13],87.4%
same,"viability, T/C",[14],99.8%
same,"viability, T/C",[15],99.1%
same,"viability, T/C",[16],85.6%
same,"viability, T/C",[17],98.6%
same,"viability, T/C",[18],99.1%
same,"viability, T/C",[19],78.2%
same,"viability, T/C",[20],87.6%
same,"viability, T/C",[21],80.4%
same,"viability, T/C",[22],90%
same,"viability, T/C",[23],92.7%
same,"viability, T/C",[24],94.4%
same,"viability, T/C",[25],82.7%
same,"viability, T/C",[26],74.9%
same,"viability, T/C",[27],79.2%
same,"viability, T/C",[28],82.8%
same,"viability, T/C",[29],83.7%
same,"viability, T/C",[30],82.2%
same,"viability, T/C",[31],69.8%
same,"viability, T/C",[32],79.3%
same,"viability, T/C",[33],80.5%
same,"viability, T/C",[34],86.2%
same,"viability, T/C",[35],61.8%
same,"viability, T/C",[36],79.6%
